According to US10196363B2, “Dihydropyrimidin-2-one compounds and medical use thereof” (JAPAN TOBACCO INC., priority 2014, dated 2019):
pEC50: −log10 of the molar value. Like-named read-outs stand apart in the source and are kept apart here.

Experiments:
human RORγ = molecular target: T1, human RORγ (Homo sapiens, UniProt P51449); assay: In vitro assay of inhibitory effect against RORγ transcriptional activity (GAL4-hRORγ LBD luciferase reporter gene assay in CHO cells); type: cell-based; conditions: for hRORγ luciferase activity, %-of-control: vehicle-control 0.2% DMSO alone = 100%
T1 construct: human RORγ, from Ser253 to Lys518; expressed in transfected cells; host or cells: CHO cells (Chinese hamster ovary), transient co-transfection with pG5-Luc
T1 sequence (P51449 253-518): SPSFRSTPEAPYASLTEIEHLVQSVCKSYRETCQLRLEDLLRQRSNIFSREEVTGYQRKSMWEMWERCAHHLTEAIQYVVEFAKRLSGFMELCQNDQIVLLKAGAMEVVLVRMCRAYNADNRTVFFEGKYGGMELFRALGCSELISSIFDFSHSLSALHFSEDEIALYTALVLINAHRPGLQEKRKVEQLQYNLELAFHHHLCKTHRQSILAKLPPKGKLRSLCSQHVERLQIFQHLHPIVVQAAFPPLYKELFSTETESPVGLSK
Method in brief: (§1)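 Transcriptional activity of human or mouse RORγ LBD, tethered to the GAL4 DNA-binding domain, is monitored by a GAL4-dependent firefly luciferase reporter in transiently transfected CHO cells. Test articles are incubated for 2 days; values are %-of-control or fitted EC50.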

mouse RORγ = molecular target: T2, mouse RORγ (Mus musculus, UniProt P51450); assay: In vitro assay of inhibitory effect against RORγ transcriptional activity (GAL4-mRORγ LBD luciferase reporter gene assay in CHO cells); type: cell-based
T2 construct: mouse RORγ, from Ile251 to Lys516; expressed in transfected cells; host or cells: CHO cells (Chinese hamster ovary), transient co-transfection with pG5-Luc
T2 sequence (P51450 251-516): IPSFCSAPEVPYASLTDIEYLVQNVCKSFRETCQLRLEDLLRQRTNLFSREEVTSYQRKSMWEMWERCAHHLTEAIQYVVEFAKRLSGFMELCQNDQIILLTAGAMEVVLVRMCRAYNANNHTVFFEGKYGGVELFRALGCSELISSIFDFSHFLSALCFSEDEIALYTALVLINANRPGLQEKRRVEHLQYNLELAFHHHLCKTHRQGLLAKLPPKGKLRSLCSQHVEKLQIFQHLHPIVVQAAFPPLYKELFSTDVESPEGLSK
Method in brief: as §1

[1] = GAL4-hRORγ LBD / pG5-Luc in CHO cells, 2 days incubation
[2] = value in parentheses beside the > EC50 bound
[3] = GAL4-mRORγ LBD / pG5-Luc in CHO cells, 2 days incubation
[4] = GAL4-hRORγ LBD luciferase reporter, CHO cells, read-out: LUC EC50 hRORγ
[5] = GAL4-mRORγ LBD luciferase reporter, CHO cells, read-out: LUC EC50 mRORγ

SMILES	pEC50 (human RORγ; [1])	pEC50 (mouse RORγ; [3])	pEC50 (human RORγ; [4])	pEC50 (mouse RORγ; [5])	further results
CC(C)C1=CN(CCC(=O)O)C(=O)N[C@@]1(C)c1ccc(CC2CCCCC2)c(Cl)c1 [Example 268]			7.82	7.85	
CCCCCc1ccc(C2(C)NC(=O)N(CCCC(=O)O)C=C2C(C)C)cc1Cl (racemic) [Example 53]	7.44	7.68			
CC(C)C1=CN(CCC(=O)O)C(=O)N[C@@]1(C)c1ccc(C=C2CCCCC2)c(Cl)c1 [Example 267]			7.52	7.48	
CC(C)(C)COc1ccc(C2NC(=O)NC=C2C(C)(C)CC(=O)O)cc1Cl (racemic) [Example 4]	5.84	6.17			
CC(C)C1=CN(CCC(=O)O)C(=O)N[C@@]1(C)c1cc(F)c(OCCC(C)(C)C)c(Cl)c1 [Example 165]	7.57	7.77			
COCCC1=CN(C23CCC(C(=O)O)(C2)C3)C(=O)N[C@@]1(C)c1ccc([C@H]2C[C@@H](C(C)(C)C)C2)c(Cl)c1 (single isomer, unassigned) [Example 344]			7.89	7.92	
CC(C)CSc1ccc([C@]2(C)NC(=O)N(CCC(=O)O)C=C2C(C)C)cc1Cl [Example 214]			6.77	7.00	
CC(C)C1=CN(CCC(=O)O)C(=O)N[C@@]1(C)c1ccc(C(C)CC(C)(C)C)c(Cl)c1 (some centres unmarked) [Example 179]	7.19	7.57			
CC(C)CS(=O)(=O)c1ccc([C@]2(C)NC(=O)N(CCC(=O)O)C=C2C(C)C)cc1Cl [Example 219]			< 4.70	< 4.70	hRORγ luciferase activity, %-of-control (human RORγ; value in parentheses beside the EC50 bound): (88%); mRORγ luciferase activity, %-of-control (mouse RORγ; value in parentheses beside the EC50 bound, vehicle-control 0.2% DMSO alone = 100%): (86%)
CC(C)C1=CN(CCC(=O)O)C(=O)N[C@@]1(C)c1ccc(C=C2CCC2)c(Cl)c1 [Example 288]			5.83	6.04	
CC(=O)N1CC(C(=O)O)C(N2C=C(C(C)C)[C@](C)(c3ccc(CCC(C)(C)C)c(Cl)c3)NC2=O)C1 (single isomer, unassigned) [Example 239]			5.34	5.51	
CC(C)Cc1ccc(C2(C)NC(=O)N(CCCC(=O)O)C=C2C(C)C)cc1 (racemic) [Example 106]	5.93	6.21			
CC(C)C1=CN(CCCC(=O)O)C(=O)NC1(C)c1ccc(OCC(C)(C)C)c(Cl)c1 (single isomer, unassigned) [Example 13]	5.18	5.23			
CC(C)C1=CN(CCC(C)C(=O)O)C(=O)NC1(C)c1ccc(OCC(C)(C)C)c(Cl)c1 (single isomer, unassigned) [Example 19]	5.64	5.92			
CC(C)C1=CN([C@H]2C[C@@H](C(=O)O)C2)C(=O)NC1(C)c1ccc(OCC(C)(C)C)c(Cl)c1 (mixture of isomers) [Example 16]	6.44	6.86			
CC(C)C1=CN(CCC(=O)O)C(=O)N[C@@]1(C)c1ccc(CCC(C)(C)C(F)(F)F)c(Cl)c1 [Example 185]	8.05	7.85			
CC(C)C1=CN(CCC(=O)O)C(=O)N[C@@]1(C)c1ccc(CCC(C)(C)C)c(F)c1 [Example 176]	7.66	7.89			
CCOC(=O)c1ccc(C2(C)NC(=O)N(CCC(=O)O)C=C2C(C)C)cc1Cl (racemic) [Example 114]	4.83	4.96			
CCCCc1ccc(C2(C)NC(=O)N(CCCC(=O)O)C=C2C(C)C)cc1OCc1ccccc1 (racemic) [Example 85]	6.26	6.43			
CC(C)C1=CN(CCC(=O)O)C(=O)N[C@@]1(C)c1ccc(C2=CCCC2)c(Cl)c1 [Example 149]	5.99	6.61			
CC1(C)CC=C(c2ccc([C@]3(C)NC(=O)N(CCC(=O)O)C=C3C3CC3)cc2Cl)CC1 [Example 321]			7.22	7.32	
COCCC1=CN(C23CCC(C(=O)O)(C2)C3)C(=O)N[C@@]1(C)c1ccc(CCC(C)(C)C)c(C(F)(F)F)c1 [Example 324]			7.33	7.44	
CC(C)C1=CN(CCC(=O)O)C(=O)N[C@@]1(C)c1ccc(CCC2CCCCC2)c(Cl)c1 [Example 139]	< 6.29	7.57			hRORγ luciferase activity, %-of-control (human RORγ; [2]): (110%)
C[C@@]1(c2ccc(CC3CCCCC3)c(Cl)c2)NC(=O)N(CCC(=O)O)C=C1C1CC1 [Example 347]			6.96	7.46	

More lines, main results first:

pEC50 (human RORγ; [1])	pEC50 (mouse RORγ; [3])	pEC50 (human RORγ; [4])	pEC50 (mouse RORγ; [5])	SMILES	further results
< 5.49	5.25			CC(C)(C)CCc1ccc([C@@]2(C)NC(=O)N([C@H]3C[C@H](C(=O)O)C3)C=C2C2CC(F)(F)C2)cc1Cl [Example 95]	hRORγ luciferase activity, %-of-control (human RORγ; [2]): (66%)
		6.65	7.12	CC(C)N1C=C(CCC(=O)O)[C@](C)(c2ccc(CCC(C)(C)C)c(Cl)c2)NC1=O [Example 230]	
5.67	5.59			CC(C)C1=CN(CC(=O)O)C(=O)N[C@]1(C)c1ccc(CCC(C)(C)C)c(Cl)c1 [Example 93]	
		7.37	7.33	CC(C)C1=CN(c2ccc(C(=O)O)cc2)C(=O)N[C@@]1(C)c1ccc(CCC(C)(C)C)c(C(F)(F)F)c1 [Example 271, 4-{(S)-4-[4-(3,3-Dimethyl-butyl)-3-trifluoromethyl-phenyl]-5-isopropyl-4-methyl-2-oxo-3,4-dihydro-2H-pyrimidin-1-yl}-benzoic Acid]	
6.82	6.70			CC(C)C1=CN(CCOCC(=O)O)C(=O)NC1(C)c1ccc(CCC(C)(C)C)c(Cl)c1 (single isomer, unassigned) [Example 40]	
		7.44	7.47	CC(C)(C)CCc1ccc([C@]2(C)NC(=O)N(C3CC(C)(C)C3)C=C2[C@H]2C[C@H](C(=O)O)C2)cc1Cl (single isomer, unassigned) [Example 287]	
7.89	7.77			CC(C)C1=CN(CCC2(C(=O)O)CC2)C(=O)N[C@@]1(C)c1ccc(CCC(C)(C)C)c(Cl)c1 [Example 72]	
		6.42	6.73	CC(C)C1=CN(CCC(=O)O)C(=O)N[C@@]1(C)c1ccc(CC2CC(F)(F)C2)c(Cl)c1 [Example 282]	
		7.66	7.54	Cc1cc(C(=O)O)ccc1N1C=C(C(C)C)[C@](C)(c2ccc(CCC(C)(C)C)c(Cl)c2)NC1=O [Example 220]	
		7.64	7.57	CC(C)(C)CCc1ccc([C@]2(C)NC(=O)N(c3ccc(C(=O)O)cn3)C=C2C2CC(F)(F)C2)cc1Cl [Example 320]	
		7.43	7.15	CC(C)(C)CCc1ccc([C@]2(C)NC(=O)N(CCC(=O)O)C=C2c2ccccc2)cc1Cl [Example 265]	
		7.60	7.12	COCCN1C=C(c2cccc(C(=O)O)c2)[C@](C)(c2ccc(CCC(C)(C)C)c(Cl)c2)NC1=O [Example 273]	
		6.55	6.37	CC(C)(C)CCc1ccc([C@]2(C)NC(=O)N([C@H]3C[C@H](C(=O)O)C3)C=C2[C@H]2C[C@@H](CO)C2)cc1Cl [Example 205]	
8.00	7.85			CC(C)C1=CN(C[C@H]2C[C@H](C(=O)O)C2)C(=O)N[C@@]1(C)c1ccc(CCC(C)(C)C)c(Cl)c1 [Example 154, 3-{(S)-4-[3-chloro-4-(3,3-dimethyl-butyl)-phenyl]-5-isopropyl-4-methyl-2-oxo-3,4-dihydro-2H-pyrimidin-1-ylmethyl}-cyclobutanecarboxylic acid]	
